In the NIST ThermoML archive (doi:10.1021/je101264r):

Assay: mn = molality of the nth substance listed, in mol/kg
Details: 298.15 K, 101 kPa, Liquid, rubidium clock sound velocity meter

Nc1ncnc2c1ncn2[C@@H]1O[C@H](CO)[C@@H](O)[C@H]1O [β-adenosine] + O
Details | speed of sound [m/s]
m1 = 0.01701 | 1497.8
m1 = 0.01736 | 1497.8
m1 = 0.01799 | 1497.8
m1 = 0.01851 | 1497.9
m1 = 0.01911 | 1497.9
m1 = 0.0195 | 1497.9
m1 = 0.02001 | 1498
m1 = 0.02054 | 1498
